Results reported in ChEMBL document CHEMBL1201862, “PubChem BioAssay data set” (2004).
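Compound exposure: 48 hours, 5 concentrations, 96-well plates. Here, GI50 denotes the concentration required for 50% inhibition of growth.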 Activity calls are given as the source filed them. Rule as the data show it: active = GI50 up to about 1.1 µM and inactive = higher.

Tests used:
Experiment in all cases: inhibition of tumour cell growth, NCI panel, 48 h
T47D = test system: T47D
A498 = test system: A498
786-0 = test system: 786-0
U-251 = test system: U-251
PC-3 = test system: PC-3
SN12C = test system: SN12C
SK-MEL-2 = test system: SK-MEL-2
SF-295 = test system: SF-295
MDA-N = test system: MDA-N
A549 = test system: A549
SK-MEL-28 = test system: SK-MEL-28
SNB-19 = test system: SNB-19
SK-OV-3 = test system: SK-OV-3
EKVX = test system: EKVX
DU-145 = test system: DU-145
SF-539 = test system: SF-539
IGROV-1 = test system: IGROV-1
Malme-3M = test system: Malme-3M
LOX IMVI = test system: LOX IMVI
SR = test system: SR

SMILES	GI50 (T47D)	GI50 (A498)	GI50 (786-0)	GI50 (U-251)	GI50 (PC-3)	GI50 (SN12C)	GI50 (SK-MEL-2)	GI50 (SF-295)	GI50 (MDA-N)	GI50 (A549)	GI50 (SK-MEL-28)	GI50 (SNB-19)	GI50 (SK-OV-3)	GI50 (EKVX)	GI50 (DU-145)	GI50 (SF-539)	GI50 (IGROV-1)	GI50 (Malme-3M)	GI50 (LOX IMVI)	GI50 (SR)
O=S(=O)(Cc1ccccc1)c1nnc(S(=O)(=O)c2ccc(Cl)cc2)s1	31.6 µM (inactive)	22 µM (inactive)	23.6 µM (inactive)	33 µM (inactive)	21.8 µM (inactive)	20.2 µM (inactive)	22.8 µM (inactive)	24.1 µM (inactive)	18.1 µM (inactive)	27.5 µM (inactive)	19.9 µM (inactive)	19.6 µM (inactive)	23.3 µM (inactive)	25.6 µM (inactive)	17 µM (inactive)	18.5 µM (inactive)	–	–	–	–
COc1cccc2c1[C@H](OC)[C@]13O[C@@]1(C2=O)[C@H](O)[C@H](C)[C@@](O)(C(=O)[C@@H]1O[C@H]1C)[C@@H]3O	0.313 µM (active)	0.253 µM (active)	0.264 µM (active)	0.303 µM (active)	0.266 µM (active)	–	0.175 µM (active)	0.218 µM (active)	0.265 µM (active)	0.199 µM (active)	0.23 µM (active)	–	0.21 µM (active)	0.187 µM (active)	0.282 µM (active)	–	0.229 µM (active)	0.169 µM (active)	0.237 µM (active)	–
O=[N+]([O-])c1ccc(/C(=N/c2ccccc2)SS/C(=N\c2ccccc2)c2ccc([N+](=O)[O-])o2)o1	2.2 µM (inactive)	–	1.4 µM (inactive)	0.955 µM (active)	1.7 µM (inactive)	1.94 µM (inactive)	2.51 µM (inactive)	2.76 µM (inactive)	2.72 µM (inactive)	1.91 µM (inactive)	2.4 µM (inactive)	1.84 µM (inactive)	3.86 µM (inactive)	1.77 µM (inactive)	1.69 µM (inactive)	0.83 µM (active)	1.6 µM (inactive)	2.31 µM (inactive)	1.49 µM (inactive)	0.425 µM (active)
COc1c(C)c(C/C=C(\C)CCCCO[Si](C(C)C)(C(C)C)C(C)C)c(OC)c2ccccc12	–	–	> 100 µM (inactive)	> 100 µM (inactive)	> 100 µM (inactive)	> 100 µM (inactive)	> 100 µM (inactive)	> 100 µM (inactive)	> 100 µM (inactive)	> 100 µM (inactive)	–	> 100 µM (inactive)	> 100 µM (inactive)	> 100 µM (inactive)	> 100 µM (inactive)	> 100 µM (inactive)	> 100 µM (inactive)	–	> 100 µM (inactive)	70.1 µM (inactive)
O=C(NC(CS)C(=O)O)c1c2ccccc2nc2ccccc12 (stereo unspecified)	–	> 100 µM (inactive)	> 100 µM (inactive)	75 µM (inactive)	23.9 µM (inactive)	> 100 µM (inactive)	47.8 µM (inactive)	21.5 µM (inactive)	14.5 µM (inactive)	19.7 µM (inactive)	74.1 µM (inactive)	23.7 µM (inactive)	95.3 µM (inactive)	47.5 µM (inactive)	30.7 µM (inactive)	> 100 µM (inactive)	38 µM (inactive)	15.2 µM (inactive)	21.5 µM (inactive)	> 100 µM (inactive)
CC(=O)/C=C/CCC(=O)/C=C/C(=O)OC(CCC(=O)/C=C/C(=O)O)CC(C)=O (stereo unspecified)	> 100 µM (inactive)	–	> 100 µM (inactive)	> 100 µM (inactive)	> 100 µM (inactive)	> 100 µM (inactive)	–	> 100 µM (inactive)	> 100 µM (inactive)	> 100 µM (inactive)	> 100 µM (inactive)	> 100 µM (inactive)	–	> 100 µM (inactive)	> 100 µM (inactive)	> 100 µM (inactive)	> 100 µM (inactive)	> 100 µM (inactive)	–	88.9 µM (inactive)
O=C(O)c1ccccc1Sc1ccccc1[N+](=O)[O-]	> 100 µM (inactive)	> 100 µM (inactive)	> 100 µM (inactive)	> 100 µM (inactive)	> 100 µM (inactive)	> 100 µM (inactive)	> 100 µM (inactive)	> 100 µM (inactive)	> 100 µM (inactive)	> 100 µM (inactive)	> 100 µM (inactive)	> 100 µM (inactive)	> 100 µM (inactive)	> 100 µM (inactive)	> 100 µM (inactive)	> 100 µM (inactive)	> 100 µM (inactive)	> 100 µM (inactive)	> 100 µM (inactive)	–
O=C(/C=C/c1ccccc1)CCN1CCN(CCC(=O)/C=C/c2ccccc2)CC1	14.9 µM (inactive)	18.9 µM (inactive)	6.05 µM (inactive)	16.7 µM (inactive)	16.8 µM (inactive)	10.1 µM (inactive)	17.9 µM (inactive)	17.2 µM (inactive)	2.19 µM (inactive)	30.9 µM (inactive)	14.2 µM (inactive)	17.6 µM (inactive)	13.5 µM (inactive)	18.6 µM (inactive)	17.6 µM (inactive)	14.9 µM (inactive)	18.2 µM (inactive)	16.2 µM (inactive)	2.38 µM (inactive)	–
OC1(C(Sc2cc(C(F)(F)F)cc(C(F)(F)F)c2)Sc2cc(C(F)(F)F)cc(C(F)(F)F)c2)C=CCCC1 (stereo unspecified)	1.25 µM (inactive)	1.35 µM (inactive)	2.39 µM (inactive)	–	–	2.14 µM (inactive)	–	1.86 µM (inactive)	2.56 µM (inactive)	1.63 µM (inactive)	2.71 µM (inactive)	2.49 µM (inactive)	2.67 µM (inactive)	2.22 µM (inactive)	2.53 µM (inactive)	–	2.38 µM (inactive)	2.77 µM (inactive)	1.66 µM (inactive)	–
CC(C)CCC[C@@H](C)C1CCC2[C@@H]3CCC4CC(CCC=C(c5cc(Cl)c(OC(=O)c6ccccc6)c(C(=O)O)c5)c5cc(Cl)c(OC(=O)c6ccccc6)c(C(=O)O)c5)CC[C@]4(C)C3CC[C@@]21C (stereo partly specified)	–	52.5 µM (inactive)	22.6 µM (inactive)	> 100 µM (inactive)	> 100 µM (inactive)	> 100 µM (inactive)	> 100 µM (inactive)	–	> 100 µM (inactive)	> 100 µM (inactive)	–	> 100 µM (inactive)	> 100 µM (inactive)	88.3 µM (inactive)	> 100 µM (inactive)	> 100 µM (inactive)	34.8 µM (inactive)	64.7 µM (inactive)	–	–
Cn1cc(NC(=O)Nc2cc(C(=O)Nc3cc(C(=O)Nc4cc(S(=O)(=O)O)c5cc(S(=O)(=O)O)cc(S(=O)(=O)O)c5c4)n(C)c3)n(C)c2)cc1C(=O)Nc1cc(C(=O)Nc2cc(S(=O)(=O)O)c3cc(S(=O)(=O)O)cc(S(=O)(=O)O)c3c2)n(C)c1	> 100 µM (inactive)	–	> 100 µM (inactive)	> 100 µM (inactive)	> 100 µM (inactive)	> 100 µM (inactive)	–	> 100 µM (inactive)	> 100 µM (inactive)	> 100 µM (inactive)	> 100 µM (inactive)	> 100 µM (inactive)	> 100 µM (inactive)	31.9 µM (inactive)	> 100 µM (inactive)	> 100 µM (inactive)	5.64 µM (inactive)	> 100 µM (inactive)	–	> 100 µM (inactive)
Cc1cc(C)c(S(=O)(=O)N2CCCN(S(=O)(=O)c3c(C)cc(C)cc3C)OCCCO2)c(C)c1	63.5 µM (inactive)	> 100 µM (inactive)	> 100 µM (inactive)	> 100 µM (inactive)	89.3 µM (inactive)	> 100 µM (inactive)	> 100 µM (inactive)	> 100 µM (inactive)	> 100 µM (inactive)	> 100 µM (inactive)	> 100 µM (inactive)	> 100 µM (inactive)	> 100 µM (inactive)	> 100 µM (inactive)	> 100 µM (inactive)	–	> 100 µM (inactive)	> 100 µM (inactive)	> 100 µM (inactive)	–
CC(=O)Nc1ccc(C(=O)N[C@@H]2C(=O)N3[C@@H]2SC(C)(C)[C@@H]3C(=O)O)cn1	> 100 µM (inactive)	> 100 µM (inactive)	> 100 µM (inactive)	> 100 µM (inactive)	> 100 µM (inactive)	> 100 µM (inactive)	> 100 µM (inactive)	> 100 µM (inactive)	> 100 µM (inactive)	> 100 µM (inactive)	> 100 µM (inactive)	> 100 µM (inactive)	> 100 µM (inactive)	> 100 µM (inactive)	> 100 µM (inactive)	–	> 100 µM (inactive)	> 100 µM (inactive)	> 100 µM (inactive)	–
CN(C)CC1CC/C(=C\c2ccc3c(c2)OCO3)C1=O (stereo unspecified)	–	19 µM (inactive)	6.85 µM (inactive)	18.3 µM (inactive)	13.6 µM (inactive)	7.89 µM (inactive)	13 µM (inactive)	23.1 µM (inactive)	4.42 µM (inactive)	28.2 µM (inactive)	10.5 µM (inactive)	16.2 µM (inactive)	> 43.1 µM (inactive)	18.9 µM (inactive)	7.66 µM (inactive)	16.3 µM (inactive)	9.75 µM (inactive)	9.46 µM (inactive)	1.95 µM (inactive)	2.82 µM (inactive)
O=C1C(Br)=CC2(C=C1Br)CCNC1=C2C(=O)c2ncccc2C1=O	1.97 µM (inactive)	–	1.47 µM (inactive)	1.31 µM (inactive)	1.95 µM (inactive)	1.21 µM (inactive)	0.116 µM (active)	1.37 µM (inactive)	0.183 µM (active)	1.44 µM (inactive)	0.443 µM (active)	1.28 µM (inactive)	2.03 µM (inactive)	1.65 µM (inactive)	1.68 µM (inactive)	0.318 µM (active)	0.54 µM (active)	1.09 µM (active)	0.313 µM (active)	0.457 µM (active)
